Laboratory results: patent publication US9598423B2 (BRISTOL-MYERS SQUIBB COMPANY, priority 2013, dated 2017)
Like-named read-outs stand apart in the source and are kept apart here.

Assays:
[1] = biological target: CK1δ (Homo sapiens (Human), UniProt P48730); assay: CK1δ kinase assay (Caliper LABCHIP electrophoretic separation of fluoresceinated peptide substrate and product); type: biochemical; details: 200 pM CK1δ, 50 μM ATP, 1.5 μM peptide substrate, 22 hours at room temperature; read-out: CK1δ (IC50)
Procedure, shortened: (§1)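 Reactions ran 22 hours at room temperature and were stopped with EDTA. Phosphorylated product and unphosphorylated substrate were then separated electrophoretically. Compounds were tested at eleven concentrations, and IC50 values came from non-linear regression.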

[2] = biological target: CK1ε (Homo sapiens (Human), UniProt P49674); assay: CK1ε kinase assay (Caliper LABCHIP electrophoretic separation of fluoresceinated peptide substrate and product); type: biochemical; details: read-out: CK1ε (IC50)
Procedure, shortened: as §1

[3] = 200 pM CK1ε, 50 μM ATP, 1.5 μM peptide substrate, 22 hours at room temperature

CK1δ, sequence (P48730 whole entry): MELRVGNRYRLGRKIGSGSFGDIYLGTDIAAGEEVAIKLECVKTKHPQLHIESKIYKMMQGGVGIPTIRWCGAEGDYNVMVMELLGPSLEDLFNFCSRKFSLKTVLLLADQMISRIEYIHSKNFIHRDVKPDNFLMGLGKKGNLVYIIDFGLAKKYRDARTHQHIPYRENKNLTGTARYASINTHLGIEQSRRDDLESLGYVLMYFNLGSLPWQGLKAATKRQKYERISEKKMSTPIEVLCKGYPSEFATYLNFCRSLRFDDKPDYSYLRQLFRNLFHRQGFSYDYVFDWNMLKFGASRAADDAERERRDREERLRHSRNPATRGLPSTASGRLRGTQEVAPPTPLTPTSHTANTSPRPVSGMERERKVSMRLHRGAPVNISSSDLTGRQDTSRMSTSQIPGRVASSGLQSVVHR
CK1ε, sequence (P49674 whole entry): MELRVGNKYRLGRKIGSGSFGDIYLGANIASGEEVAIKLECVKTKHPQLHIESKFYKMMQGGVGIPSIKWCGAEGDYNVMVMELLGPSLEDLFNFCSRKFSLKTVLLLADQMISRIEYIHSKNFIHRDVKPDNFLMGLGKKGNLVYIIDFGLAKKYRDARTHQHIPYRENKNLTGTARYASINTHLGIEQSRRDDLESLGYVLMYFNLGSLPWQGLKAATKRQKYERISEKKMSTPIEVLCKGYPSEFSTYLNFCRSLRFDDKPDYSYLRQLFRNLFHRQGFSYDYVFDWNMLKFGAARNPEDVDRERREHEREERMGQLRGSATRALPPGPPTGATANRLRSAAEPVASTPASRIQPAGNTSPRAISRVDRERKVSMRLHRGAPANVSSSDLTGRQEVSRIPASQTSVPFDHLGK

Row | Structure (SMILES) | IC50 [1] | IC50 [2, 3] | IC50 [2]
1 | N#Cc1ccc(NC(=O)N2CCn3nc(-c4ccc(F)c(Cl)c4)c(C(N)=O)c3C2)cc1 [Compound 172] | 0.01 to 10 nM | 0.01 to 10 nM | 
2 | Cc1ccc(-c2nn3c(c2C(N)=O)CN(C(=O)Nc2ccc(C#N)c(C(F)(F)F)c2)CC3)cc1Cl [Compound 253, 2-(3-Chloro-4-methylphenyl)-N^5-(4-cyano-3-(trifluoro-methyl)phenyl)-6,7-dihydropyrazolo [1,5-a]pyrazine-3,5(4H)-dicarboxamide] | 0.01 to 10 nM |  | 0.01 to 10 nM
3 | N#Cc1ccc(NC(=O)N2Cc3c(C(N)=O)c(-c4ccc(F)c(Cl)c4)nn3C(C(=O)NC3CCOCC3)C2)cc1 (single isomer, unassigned) [Compound A28, 2-(3-Chloro-4-fluorophenyl)-N^5-(4-cyanophenyl)-N^7-(tetrahydro-2H-pyran-4-yl)-6,7-dihydropyrazolo[1,5-a]pyrazine-3,5,7(4H)-tricarboxamide] | 10 to 100 nM | 10 to 100 nM | 
4 | CC1Cn2nc(-c3ccc(Cl)c(Cl)c3)c(C(N)=O)c2CN1C(=O)Nc1ccc(C#N)cc1 (single isomer, unassigned) [Compound 333, N^5-(4-Cyanophenyl)-2-(3,4-dichlorophenyl)-6-methyl-6,7-dihydropyrazolo[1,5-a]pyrazine-3,5(4H)-dicarboxamide] | 0.01 to 10 nM | 0.01 to 10 nM | 
5 | CS(=O)(=O)c1ccc(-c2nn3c(c2C(N)=O)CN(C(=O)Nc2ccc(C#N)cc2)CC3)cc1 [Compound 290, N^5-(4-Cyanophenyl)-2-(4-(methylsulfonyl)phenyl)-6,7-dihydropyrazolo[1,5-a] pyrazine-3,5(4H)-dicarboxamide] | 100 to 2000 nM | 100 to 2000 nM | 
6 | C[C@H]1CN(C(=O)Nc2ccc(C#N)cc2)Cc2c(C(N)=O)c(-c3cccc(F)c3)nn21 (single isomer, unassigned) [Compound A78, N^5-(4-Cyanophenyl)-2-(3-fluorophenyl)-7-methyl-6,7-dihydropyrazolo[1,5-a]pyrazine-3,5(4H)-dicarboxamide] | 0.01 to 10 nM | 0.01 to 10 nM | 
7 | CC1Cn2nc(-c3ccc(Cl)c(Cl)c3)c(C(N)=O)c2CN1C(=O)Nc1ccc(C#N)cc1 (single isomer, unassigned) [Compound 334, N^5-(4-Cyanophenyl)-2-(3,4-dichlorophenyl)-6-methyl-6,7-dihydropyrazolo[1,5-a]pyrazine-3,5(4H)-dicarboxamide] | 0.01 to 10 nM | 0.01 to 10 nM | 
8 | N#Cc1ccc(NC(=O)N2CCn3nc(-c4cc(Cl)c5[nH]ncc5c4)c(C(N)=O)c3C2)cc1F [Compound 316, 2-(7-Chloro-1H-indazol-5-yl)-N^5-(4-cyano-3-fluorophenyl)-6,7-dihydropyrazolo[1,5-a]pyrazine-3,5(4H)-dicarboxamide] | 0.01 to 10 nM | 0.01 to 10 nM | 
9 | Cc1cc(Cl)cc(-c2nn3c(c2C(N)=O)CN(C(=O)Nc2ccc(C#N)c(Cl)c2)CC3)c1 [Compound A63, N^5-(3-Chloro-4-cyanophenyl)-2-(3-chloro-5-methylphenyl)-6,7-dihydropyrazolo[1,5-a]pyrazine-3,5(4H)-dicarboxamide] | 0.01 to 10 nM | 0.01 to 10 nM | 
10 | Cc1ccc(-c2nn3c(c2C(N)=O)CN(C(=O)Nc2ccc(C#N)c(F)c2)CC3)cc1Cl [Compound 255, 2-(3-Chloro-4-methylphenyl)-N^5-(4-cyano-3-fluorophenyl)-6,7-dihydropyrazolo [1,5-a]pyrazine-3,5(4H)-dicarboxamide] | 0.01 to 10 nM | 0.01 to 10 nM | 
11 | CC1CN(C(=O)Nc2ccc(C#N)cc2)Cc2c(C(N)=O)c(-c3cccc(Cl)c3)nn21 (stereo not drawn) [Compound A13, 2-(3-Chlorophenyl)-N^5-(4-cyanophenyl)-7-methyl-6,7-dihydropyrazolo[1,5-a]pyrazine-3,5(4H)-dicarboxamide] | 0.01 to 10 nM | 0.01 to 10 nM | 
12 | CC(=O)Nc1cccc(-c2nn3c(c2C(N)=O)CN(C(=O)Nc2ccc(C#N)cc2)CC3)c1 [Compound 288, 2-(3-Acetamidophenyl)-N^5-(4-cyanophenyl)-6,7-dihydropyrazolo[1,5-a] pyrazine-3,5(4H)-dicarboxamide] | 100 to 2000 nM | 100 to 2000 nM | 
13 | CS(=O)(=O)c1ccc(NC(=O)N2CCn3nc(-c4ccc(F)c(Cl)c4)c(C(N)=O)c3C2)nc1 [Compound 195, 2-(3-Chloro-4-fluorophenyl)-N^5-(5-(methylsulfonyl)pyridin-2-yl)-6,7-dihydropyrazolo[1,5-a] pyrazine-3,5(4H)-dicarboxamide] | 0.01 to 10 nM | 0.01 to 10 nM | 
14 | N#Cc1ccc(NC(=O)N2Cc3c(C(N)=O)c(-c4ccc(Cl)c(Cl)c4)nn3[C@H]3COC[C@H]32)cc1 [Compound 349, (5aS,8aR)-N^5-(4-Cyanophenyl)-2-(3,4-dichlorophenyl)-5a,6,8,8a-tetrahydrofuro[3,4-e]pyrazolo[1,5-a]pyrazine-3,5(4H)-dicarboxamide] | 0.01 to 10 nM | 0.01 to 10 nM | 
15 | CC(C)(O)[C@@H]1CN(C(=O)Nc2ccc(C#N)cc2)Cc2c(C(N)=O)c(-c3ccc(Cl)c(Cl)c3)nn21 (single isomer, unassigned) [Compound A34, N^5-(4-Cyanophenyl)-2-(3,4-dichlorophenyl)-7-(2-hydroxypropan-2-yl)-6,7-dihydropyrazolo[1,5-a]pyrazine-3,5(4H)-dicarboxamide] | 0.01 to 10 nM | 0.01 to 10 nM | 
16 | Cc1ccc(-c2nn3c(c2C(N)=O)CN(C(=O)Nc2ccc(C#N)cc2)CC3)cc1C [Compound 282, N^5-(4-Cyanophenyl)-2-(3,4-dimethylphenyl)-6,7-dihydropyrazolo[1,5-a] pyrazine-3,5(4H)-dicarboxamide] | 0.01 to 10 nM | 0.01 to 10 nM | 
17 | N#Cc1ccc(NC(=O)N2CCn3nc(-c4ccc(F)c(Cl)c4)c(C(=O)NC4CC4)c3C2)cc1 [Compound A65, 2-(3-Chloro-4-fluorophenyl)-N^5-(4-cyanophenyl)-N^3-cyclopropyl-6,7-dihydropyrazolo[1,5-a]pyrazine-3,5(4H)-dicarboxamide] | 100 to 2000 nM | 100 to 2000 nM | 
18 | N#Cc1ccc(NC(=O)N2CCn3nc(-c4cccc(OC(F)(F)F)c4)c(C(N)=O)c3C2)cc1 [Compound 284, N^5-(4-Cyanophenyl)-2-(3-(trifluoromethoxy)phenyl)-6,7-dihydropyrazolo[1,5-a] pyrazine-3,5(4H)-dicarboxamide] | 10 to 100 nM | 10 to 100 nM | 
19 | N#Cc1cccc(NC(=O)N2CCn3nc(-c4cccc(Cl)c4)c(C(N)=O)c3C2)c1 [Compound 161, 2-(3-Chlorophenyl)-N^5-(3-cyanophenyl)-6,7-dihydropyrazolo[1,5-a] pyrazine-3,5(4H)-dicarboxamide] | 0.01 to 10 nM | 0.01 to 10 nM | 
20 | NC(=O)c1c(-c2cccc(F)c2)nn2c1CN(C(=O)Nc1ccnnc1)CC2 [Compound 82, 2-(3-Fluorophenyl)-N^5-(pyridazin-4-yl)-6,7-dihydropyrazolo[1,5-a]pyrazine-3,5(4H)-dicarboxamide] | 0.01 to 10 nM | 0.01 to 10 nM | 
21 | NC(=O)c1c(-c2cc(Cl)cc(Cl)c2)nn2c1CN(C(=O)Nc1ccc(Cl)c(Cl)c1)CC2 [Compound 302, N^5-(3,4-Dichlorophenyl)-2-(3,5-dichlorophenyl)-6,7-dihydropyrazolo[1,5-a] pyrazine-3,5(4H)-dicarboxamide] | 0.01 to 10 nM | 0.01 to 10 nM | 
